Holding throughout (format): functional
For assay [1], the system named is Athelia rolfsii. Briefly: Antifungal activity against Athelia rolfsii assessed as growth inhibition at 100 ppm by agar dilutopn method. As to conditions: Agroathelia rolfsii; read-out: GI.
Assay [2] concerns Athelia rolfsii. The assay can be described thus: Antifungal activity against Athelia rolfsii assessed as growth inhibition at 10 ppm by agar dilutopn method. As to conditions: Agroathelia rolfsii; read-out: GI.
Assay [3] has as its system Pythium. Briefly: Antifungal activity against Pythium sp. assessed as growth inhibition at 100 ppm by agar dilution method. As to conditions: read-out: GI.
For assay [4], the system named is Pythium. The assay can be described thus: Antifungal activity against Pythium sp. assessed as growth inhibition at 10 ppm by agar dilution method. As to conditions: read-out: GI.

21 compounds from ChEMBL document CHEMBL3044540, “Synthesis and Fungicidal Activity of New 6-Alkyl-2-alkylamino-4H-1, 3, 2-benzodioxaphosphorin 2-Sulfides” (1998) can be followed below.

Regarding `CCCCNP1(=S)OCc2cc(CCCC)ccc2O1` (centres undefined), the inhibition of growth at 100 ppm with Athelia rolfsii [1] was 70%; in the assay on Pythium [3], 33%. The inhibition of growth at 10 ppm was 44% with Athelia rolfsii [2] and 5% with Pythium [4].

Turning to `CCCCc1ccc2c(c1)COP(=S)(NCC(C)C)O2` (centres undefined), the inhibition of growth at 100 ppm in the assay with Athelia rolfsii [1] was determined as 48%; in the assay with Pythium [3] it was 28%. The values for the inhibition of growth at 10 ppm in the assay on Athelia rolfsii [2] and with Pythium [4] were 22% and 8%, respectively.

As for `CCCCc1ccc2c(c1)COP(=S)(NC(C)CC)O2` (centres undefined), the values for the inhibition of growth at 100 ppm in the assay on Athelia rolfsii [1] and in the assay on Pythium [3] were 47% and 38%, respectively. In addition, the inhibition of growth at 10 ppm amounted to 24% in the assay with Athelia rolfsii [2] and 33% with Pythium [4].

For `CCCNP1(=S)OCc2cc(C(C)CC)ccc2O1` (centres undefined), the inhibition of growth at 100 ppm in the assay with Athelia rolfsii [1] was determined as 77%; in the assay with Pythium [3] it was 48%. Besides, the results for the inhibition of growth at 10 ppm in the assay with Athelia rolfsii [2] and in the assay on Pythium [4] were 48% and 14%, respectively.

In the case of `CCC(C)c1ccc2c(c1)COP(=S)(NC(C)C)O2` (centres undefined), the values for the inhibition of growth at 100 ppm in the assay on Athelia rolfsii [1] and in the assay with Pythium [3] were 75% and 48%, respectively. Further, the inhibition of growth at 10 ppm was 28% with Athelia rolfsii [2] and 0% with Pythium [4].

Take `CCCCNP1(=S)OCc2cc(C(C)CC)ccc2O1` (centres undefined): the figures for the inhibition of growth at 100 ppm with Athelia rolfsii [1] and in the assay with Pythium [3] were 63% and 11%, respectively. Besides, the values for the inhibition of growth at 10 ppm with Athelia rolfsii [2] and in the assay on Pythium [4] were 39% and 4%, respectively.

In the case of `CCC(C)c1ccc2c(c1)COP(=S)(NCC(C)C)O2` (centres undefined), the inhibition of growth at 100 ppm came to 63% in the assay on Athelia rolfsii [1] and 14% with Pythium [3]. Further, the values for the inhibition of growth at 10 ppm with Athelia rolfsii [2] and with Pythium [4] were 31% and 0%, respectively.

Turning to `CCC(C)NP1(=S)OCc2cc(C(C)CC)ccc2O1` (centres undefined), the inhibition of growth at 100 ppm in the assay with Athelia rolfsii [1] worked out at 37%; in the assay with Pythium [3] it was 7%. For the same compound, the inhibition of growth at 10 ppm in the assay with Athelia rolfsii [2] and in the assay on Pythium [4] was 0% in each case.

In the case of `CCCNP1(=S)OCc2cc(CCC)ccc2O1` (centres undefined), the inhibition of growth at 100 ppm was found to be 92% in the assay on Athelia rolfsii [1] and 87% in the assay on Pythium [3]. In addition, the values for the inhibition of growth at 10 ppm with Athelia rolfsii [2] and with Pythium [4] were 63% and 66%, respectively.

Turning to `CCCc1ccc2c(c1)COP(=S)(NC(C)C)O2` (centres undefined), the inhibition of growth at 100 ppm worked out at 81% in the assay with Athelia rolfsii [1] and 80% with Pythium [3]. In addition, the inhibition of growth at 10 ppm in the assay on Athelia rolfsii [2] was 57%; with Pythium [4], 59%.

For `CCCCNP1(=S)OCc2cc(CCC)ccc2O1` (centres undefined), the inhibition of growth at 100 ppm in the assay with Athelia rolfsii [1] was 76%; in the assay with Pythium [3], 65%. The values for the inhibition of growth at 10 ppm in the assay on Athelia rolfsii [2] and with Pythium [4] were 66% and 54%, respectively.

Take `CCCc1ccc2c(c1)COP(=S)(NCC(C)C)O2` (centres undefined): the inhibition of growth at 100 ppm in the assay on Athelia rolfsii [1] was determined as 79%; in the assay with Pythium [3] it was 57%. The inhibition of growth at 10 ppm amounted to 59% in the assay on Athelia rolfsii [2] and 44% in the assay on Pythium [4].

In the case of `CCCc1ccc2c(c1)COP(=S)(NC(C)CC)O2` (centres undefined), the inhibition of growth at 100 ppm with Athelia rolfsii [1] was 64%; with Pythium [3], 59%. In addition, the inhibition of growth at 10 ppm in the assay with Athelia rolfsii [2] and in the assay on Pythium [4] was 44% each time.

Consider `CCCNP1(=S)OCc2cc(C(C)C)ccc2O1` (centres undefined), for which the inhibition of growth at 100 ppm worked out at 90% in the assay on Athelia rolfsii [1] and 75% in the assay with Pythium [3]. Moreover, the inhibition of growth at 10 ppm was 58% in the assay with Athelia rolfsii [2] and 57% with Pythium [4].

Take `CC(C)NP1(=S)OCc2cc(C(C)C)ccc2O1` (centres undefined): the inhibition of growth at 100 ppm with Athelia rolfsii [1] is 90%; with Pythium [3], 82%. Besides, the inhibition of growth at 10 ppm in the assay on Athelia rolfsii [2] was determined as 58%; with Pythium [4] it was 53%.

Take `CCCCNP1(=S)OCc2cc(C(C)C)ccc2O1` (centres undefined): the figures for the inhibition of growth at 100 ppm with Athelia rolfsii [1] and in the assay on Pythium [3] were 70% and 49%, respectively. Also, the inhibition of growth at 10 ppm with Athelia rolfsii [2] came to 56%; with Pythium [4] it was 29%.

As to `CC(C)CNP1(=S)OCc2cc(C(C)C)ccc2O1` (centres undefined), the results for the inhibition of growth at 100 ppm with Athelia rolfsii [1] and in the assay on Pythium [3] were 76% and 18%, respectively. Besides, the inhibition of growth at 10 ppm is 49% with Athelia rolfsii [2] and 14% with Pythium [4].

Take `CCC(C)NP1(=S)OCc2cc(C(C)C)ccc2O1` (centres undefined): the values for the inhibition of growth at 100 ppm in the assay on Athelia rolfsii [1] and in the assay with Pythium [3] were 68% and 43%, respectively. The inhibition of growth at 10 ppm with Athelia rolfsii [2] is 34%; in the assay with Pythium [4], 11%.

Take `CCCCc1ccc2c(c1)COP(=S)(NCCC)O2` (centres undefined): the inhibition of growth at 100 ppm in the assay with Athelia rolfsii [1] stood at 71%; in the assay with Pythium [3], 72%. Moreover, the figures for the inhibition of growth at 10 ppm in the assay on Athelia rolfsii [2] and with Pythium [4] were 55% and 54%, respectively.

For the compound `CCCCc1ccc2c(c1)COP(=S)(NC(C)C)O2` (centres undefined), the values for the inhibition of growth at 100 ppm in the assay on Athelia rolfsii [1] and with Pythium [3] were 59% and 57%, respectively. The inhibition of growth at 10 ppm with Athelia rolfsii [2] came to 42%; in the assay on Pythium [4] it was 54%.

Turning to `CC(C)OP(=O)(OC(C)C)SCc1ccccc1` [IPROBENFOS], the inhibition of growth at 100 ppm turned out to be 100% in the assay on Athelia rolfsii [1] and 89% in the assay with Pythium [3]. Besides, the inhibition of growth at 10 ppm was 69% in the assay on Athelia rolfsii [2] and 42% in the assay with Pythium [4].
